According to patent publication US7282518B2, “Benzimidazole compounds for modulating IgE and inhibiting cellular proliferation” (Avanir Pharmaceuticals, priority 2001, dated 2007):

Legend:
ER-positive cell lines = assay: Proliferation of ER-positive breast cancer cell lines; assay type: cell-based; settings: in vitro
Method: (§1) A variety of experiments were performed in an effort to determine the effect of the benzimidazole compounds on cellular proliferation. These experiments ultimately measured ^3H-thymidine incorporation into proliferating cell DNA. The specific procedure varied with the cells and the stimuli. Cells derived from mouse spleen were cultured at 3 million per ml; cell lines were seeded at 0.1 to 1 million per ml. Splenic B cells were isolated by T cell depletion and stimulated with phorbol myristate acetate (PMA) (10 ng/ml) plus ionomycin (100 nM), or IL-4 (10 ng/ml) plus anti-CD40 Ab (100 ng/ml). T cells were depleted prior to culture by incubating spleen cells first with a cocktail of anti-Thyl ascites (10%), anti-CD4 Ab (0.5 μg/ml) and anti-CD8 Ab (0.5 μg/ml), followed by guinea pig complement (adsorbed). Cell lines were unstimulated or stimulated with Human Epidermal Growth Factor (EGF) (100 ng/ml). All cells were cultured in 96-well plates for 2–3 days and pulsed for 6 to 14 hours with 50 μl of 3H-thymidine (50 μCi/ml). A similar approach was used to establish selectivity of the anti-proliferative activity by testing a battery of tumor lines derived from a variety of tissues, mostly human in origin. An attempt was made to generate proliferation data from at least 2 cell lines from each tissue selected. […]

Splenic B cells = assay: Spleen cell / splenic B cell proliferation, 3H-thymidine incorporation; assay type: cell-based, mouse
Method: (§2) Spleen cell cultures were established from naive BALB/c mice and incubated for 4 days in the presence of stimulus and drug. Cultures were pulsed for 4 hours with 3H-thymidine and harvested. A variety of experiments were performed in an effort to determine the effect of the benzimidazole compounds on cellular proliferation. These experiments ultimately measured ^3H-thymidine incorporation into proliferating cell DNA. The specific procedure varied with the cells and the stimuli. Cells derived from mouse spleen were cultured at 3 million per ml; cell lines were seeded at 0.1 to 1 million per ml. Splenic B cells were isolated by T cell depletion and stimulated with phorbol myristate acetate (PMA) (10 ng/ml) plus ionomycin (100 nM), or IL-4 (10 ng/ml) plus anti-CD40 Ab (100 ng/ml). T cells were depleted prior to culture by incubating spleen cells first with a cocktail of anti-Thyl ascites (10%), anti-CD4 Ab (0.5 μg/ml) and anti-CD8 Ab (0.5 μg/ml), followed by guinea pig complement (adsorbed). Cell lines were unstimulated or stimulated with Human Epidermal Growth Factor (EGF) (100 ng/ml). All cells were cultured in 96-well plates for 2–3 days and pulsed for 6 to 14 hours with 50 μl of 3H-thymidine (50 μCi/ml).

[1] = tested on: tumor lines derived from a variety of tissues; assay: Proliferation of a battery of tumor lines from a variety of tissues; assay type: cell-based, mostly human; settings: in vitro
Method: as §1

[2] = tested on: EGF-responsive cell lines; assay: Proliferation of EGF-responsive (ER-negative/EGFR-positive) breast cancer cell lines; assay type: cell-based; settings: in vitro
Method: as §1

cytokine release = assay: ConA-stimulated cytokine release; assay type: cell-based
[3] = tested on: murine M12.4.1 lymphoma cells; assay: M12.4.1 lymphoma cell proliferation, 3H-thymidine incorporation; assay type: cell-based
Method: as §2, with “A” for “Spleen cell cultures were established from naive BALB/c mice and incubated for 4 days in the presence of stimulus and drug. Cultures were pulsed for 4 hours with 3H-thymidine and harvested. A”, “μCi/ml). In tumor cells, the results with splenic lymphocytes led to a further analysis of cellular proliferation by measuring the growth of tumor cells in the presence of these drugs. The initial analysis was performed with murine M12.4.1 lymphoma cells, either un-stimulated or stimulated with IL-4/anti-CD40 Ab. […]” for “μCi/ml).”

IgE responses = assay: In vitro IgE responses to IL-4/anti-CD40 Ab; assay type: cell-based

O=C(Nc1ccccn1)c1ccc2[nH]c(-c3ccc(NC(=O)C45C[C@H]6C[C@@H](C4)C[C@@H](C5)C6)cc3)nc2c1 [Compound I.82]
number of ER-positive cell lines potently inhibited (ER-positive cell lines): 2 of the 5
anti-proliferative activity to T and B lymphocytes exposed to a variety of immunogenic stimuli (Splenic B cells; in vitro): highly potent
spleen cell proliferation responses (FIG. 1) (Splenic B cells; naive BALB/c mice, 4 days with stimulus and drug, 4 hours 3H-thymidine pulse): suppression of spleen cell proliferation responses
B cell proliferation response to IL-4/anti-CD40 Ab (Splenic B cells; spleen cells, IL-4 (10 ng/ml) plus anti-CD40 Ab (100 ng/ml)): suppressed
B cell proliferation response to PMA/ionomycin (Splenic B cells; spleen cells, PMA (10 ng/ml) plus ionomycin (100 nM)): suppressed
sensitivity of tumor cell lines (proliferation) [1]: a number of tumor cell lines are sensitive
proliferation of all EGF-responsive cell lines [2]: potently inhibited
ConA-stimulated cytokine release (cytokine release): inhibition
proliferation of M12.4.1 cells, potency ([3]; cultured with IL-4/anti-CD40 Ab): increased
proliferation of M12.4.1 cells ([3]; un-stimulated): suppressed the proliferation of M12.4.1 cells but with lower potency
in vitro IgE responses to IL-4/anti-CD40 Ab (IgE responses): suppressed in vitro IgE responses
